Measurements reported in patent US12108762B2, “Methods of controlling crop pests using aromatic amide insect repellents, methods of making aromatic amide insect repellents, and novel aromatic amide insect repellents” (priority 2020, dated 2024).

Key:
Or83b = molecular target: T1, Or83b (Drosophila melanogaster, UniProt Q9VNB5); experiment: Olfactory assays with receptor-modified (Or83b knockdown) flies; format: in vivo, fruit flies; conditions: for effectiveness with receptor-modified flies, one-choice trap olfactory assay: compared with assays with unmodified flies; for Or83b and Gr33a requirement for detection of the compound: fruit flies; for Or83b and Gr33a requirement for detection of the compound / effectiveness as repellent with Or83b-modified flies above the knockdown temperature: olfactory assays; for effectiveness as repellent with Or83b-modified flies above the knockdown temperature: compared with unmodified flies
T1 construct: endogenous in cells; host or cells: whole living fruit flies (behavioural olfactory assays)
T1 sequence (Q9VNB5 1-486): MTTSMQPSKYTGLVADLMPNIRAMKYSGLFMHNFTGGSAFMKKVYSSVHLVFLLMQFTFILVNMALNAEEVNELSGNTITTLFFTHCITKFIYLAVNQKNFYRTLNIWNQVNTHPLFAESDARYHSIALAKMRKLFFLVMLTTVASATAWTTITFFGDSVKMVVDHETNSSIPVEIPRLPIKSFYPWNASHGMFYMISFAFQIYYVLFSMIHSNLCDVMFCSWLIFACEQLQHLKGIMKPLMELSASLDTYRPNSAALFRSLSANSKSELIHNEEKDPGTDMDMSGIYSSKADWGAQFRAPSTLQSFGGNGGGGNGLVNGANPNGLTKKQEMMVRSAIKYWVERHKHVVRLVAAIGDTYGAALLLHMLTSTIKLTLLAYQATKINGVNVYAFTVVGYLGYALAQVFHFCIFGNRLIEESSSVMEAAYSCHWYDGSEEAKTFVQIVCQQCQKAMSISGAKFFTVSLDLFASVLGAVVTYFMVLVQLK
Procedure: (§1) The neurophysiological mechanisms of repellency were analyzed using receptors that are essential for DEET detection, Or83b and Gr33a. […] These receptors also play a role in the repellency of the most promising of the present aromatic amide compounds.

Drosophila melanogaster [1] = experiment: One-choice (single-trap) olfactory trap assay; format: in vivo; conditions: for repellency compared with DEET, one-choice trap assay: 25 μl of 25% by weight in DMSO on filter paper, 10% ACV attractant, 6 hours (FIG. 10) and 24 hours (FIG. 13); for fly death during the 6-hour screen: starved flies
Procedure: (§2) The D. melanogaster assays served as a model for SWD repellency. Forty different aromatic amides were studied at a 25% concentration by weight in DMSO, and the fruit fly chemosensory behaviors in response thereto were characterized. […]
(§3) Flies were monitored throughout their life cycle. Five-day-old flies (10 male and 10 females) were selected per assay, and starved for a predetermined length of time (e.g., 20 hours). After starvation, two different assays were used to study the olfactory related responses.
FIG. 7A is a diagram of a single-trap olfactory assay. Flies 105 were placed in a cylindrical chamber 100 containing a trap 110. The trap 110 was fashioned from an upturned 1.5 ml micro-centrifuge tube where the tapered end was trimmed away. A pipette tip 120 was cut to form a funnel and inserted into the bottom of the inverted micro-centrifuge tube 110. Then, filter paper 130 was placed between the pipette tip 120 and tip of micro-centrifuge tube 110. The pipette tip 120 was placed so that entering flies could not make physical contact with the filter paper 130. The filter paper 130 was placed in this manner so that when the filter paper 130 was treated with the repellent solution, the flies would only be able to smell at a distance and should be repelled even in the presence of an attractant.
A 25 μl sample of test compound at 25% concentration was applied to the filter paper 130 in order to provide the odor source. At the bottom of the trap 110, 125 μl of 10% apple cider vinegar (ACV) was placed as an attractant. Trials were conducted for 24 hours to visualize the number of flies 105 entering the trap 110. Typically, flies that entered the trap 110 contacted the liquid ACV and died in the ACV. Flies were counted and recorded at 4, 6, and 24 hours. No control other than DEET was used for this experiment, because it was a single trap, comparing the number of flies 105 repelled by the repellent versus the number of flies 105 interacting with the attractant (ACV).
(§4) The different assays assigned results as follows. For the single-choice olfactory assay, the numbers of flies were counted according to (1) those that entered the trap, (2) those that stayed outside the trap and lived, and (3) those that died outside the trap. For the two-choice olfactory assay, the numbers of flies were counted according to (1) those that entered the control trap, (2) those that entered the trap containing the repellent, (3) those that stayed outside of both traps and lived, and (4) those that died outside the traps. For the gustatory assay, the numbers of flies were counted according to those that had (1) a red-colored abdomen, (2) a blue-colored abdomen, (3) a purple abdomen, and (4) no added color to their abdomen. A nonparametric Mann-Whitney U test was used to compare the statistical differences between assays using DEET and the same assays using one of the present repellents for all trials.

Gr33a = molecular target: T2, Gr33a (Drosophila melanogaster, UniProt Q9VKA5); experiment: Gustatory assay with receptor-modified (Gr33a knockdown) flies; format: in vivo, fruit flies
T2 construct: endogenous in cells; host or cells: whole living fruit flies (behavioural gustatory assay)
T2 sequence (Q9VKA5 1-475): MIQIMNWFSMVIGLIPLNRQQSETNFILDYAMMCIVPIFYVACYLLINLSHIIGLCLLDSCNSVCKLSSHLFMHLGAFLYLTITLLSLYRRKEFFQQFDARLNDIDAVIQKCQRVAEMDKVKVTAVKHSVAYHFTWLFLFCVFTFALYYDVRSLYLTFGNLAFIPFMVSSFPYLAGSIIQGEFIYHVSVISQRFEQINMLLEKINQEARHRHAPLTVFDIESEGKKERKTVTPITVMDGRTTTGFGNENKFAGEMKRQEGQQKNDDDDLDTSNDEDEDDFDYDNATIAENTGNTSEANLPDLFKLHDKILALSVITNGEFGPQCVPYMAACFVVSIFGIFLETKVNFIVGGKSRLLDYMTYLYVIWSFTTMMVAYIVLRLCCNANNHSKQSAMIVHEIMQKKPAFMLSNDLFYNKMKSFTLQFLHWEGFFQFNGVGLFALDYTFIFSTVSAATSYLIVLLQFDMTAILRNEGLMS
Procedure: as §1

Drosophila melanogaster [2] = experiment: Habituation assay (prior exposure, then olfactory and gustatory screens); format: in vivo; conditions: for habituation of fruit flies, overall (olfactory and gustatory assays): post-exposure; for repellency after prior exposure, gustatory assay: prior exposure 25% by weight, gustatory screen at 5 mM
Procedure: In the gustatory assay, the consumption of sugar (from a solution in a gel) treated at varying concentrations of the present repellent compounds was compared to the consumption of control-treated sugar. For the habituation assay, flies were tested over repeated exposures to the present repellent compounds to measure changes in behavioral preference for the compounds.
Flies were continuously monitored throughout their lifetime. In this assay, 3- to 5-day-old flies (70 male and 70 female) were selected and transferred to an empty fly food container 320 (FIG. 9). The polystyrene foam cap 310 was treated with 50 μL of 25% by weight of the present aromatic amide repellent in DMSO. A thin porous material 330 was placed around the treated cap 310, with a gap between the cap 310 and the material 330 so that the flies cannot touch the treated cap 310, but can only smell it. […] After the 20-hour period, the flies were screened in the olfactory assay and gustatory assays above. In the olfactory assay, the number of flies in the trap, the number of flies outside the trap, and the number of flies that died outside the trap were counted as described herein, and in the gustatory assay, the color of the flies' abdomens were determined and counted, as described herein.
as §4

Drosophila melanogaster [3] = experiment: Two-choice trap olfactory assay; format: in vivo; conditions: for trap preference (control trap versus repellent-treated trap): DMSO control vs 25 μl of 25% by weight in DMSO
Procedure: as §2, §3
FIG. 7B is a diagram of a 2-choice trap olfactory assay. Two ACV traps 110a-b were prepared as above, in a cylinder 150 from upturned 1.5 ml micro-centrifuge tubes with the tapered end trimmed away, and a pipette 120a-b inserted into the inverted micro-centrifuge tube. In the cylinder 150, one trap 110a was treated with 25 μl of DMSO (as a control) on the filter paper 135, and the other trap 110b with the 25 μl of the 25% by weight solution of the test compound in DMSO applied to the filter paper 130. 125 μl of 10% ACV, diluted with water, was placed in the bottom of the traps 110a-b. Both traps contained filter paper as prepared in the one-trap assay. All trials were screened for 24 hours, and the number of flies 105 in each trap was counted. Positions of the traps (i.e., left or right, relative to the location of the chamber 150 in the room) were randomized. The number of flies 105 in each trap 110a and 110b were counted and recorded at 4, 6 and 24 hours.
as §4

[4] = tested on: odorant receptor CquiOR136; conditions: southern house mosquito; cited from earlier work
mosquito = mosquito repellent; cited from earlier work
[5] = one-choice trap, 25% concentration
[6] = one-choice trap, 25% concentration, 6 hours

Compound | effectiveness with receptor-modified flies, one-choice trap olfactory assay (Or83b) | Or83b and Gr33a requirement for detection of the compound (Or83b) | effectiveness as repellent with Or83b-modified flies above the knockdown temperature (Or83b) | preference of receptor-modified flies for the compound, olfactory assays (Or83b) | repellency compared with DEET, one-choice trap assay (Drosophila melanogaster [1]) | ranking among repellents in the one-choice assay (Drosophila melanogaster [1]; [5]) | fly death during the 6-hour screen (Drosophila melanogaster [1]; [6]) | preference for repellent-treated food source post-knockdown, gustatory assay (Gr33a) | habituation of fruit flies, overall (olfactory and gustatory assays) (Drosophila melanogaster [2]) | repellency after prior exposure, gustatory assay (Drosophila melanogaster [2]) | participation in choosing either trap (Drosophila melanogaster [3]; 25% by weight, 6 hours) | trap preference (control trap versus repellent-treated trap) (Drosophila melanogaster [3]; 6 hours) | also measured
O=C(c1cccc(F)c1)N1CCCC1 [Compound 2mB, N-[m-fluorobenzoyl]pyrrolidine] | significantly less effective | required | significantly less effective | much higher preference | more effective than DEET | most effective repellents | no fly death | increased preference | demonstrated habituation in at least one assay | significantly less repellency | less overall participation | preference for the control trap | aversion (no flies entering the single-choice trap) (Drosophila melanogaster [1]; [5]): 100%; repellency (Drosophila melanogaster [1]; [6]): significant repellency; effectiveness with receptor-modified flies, gustatory assay (Gr33a; compared with unmodified flies): significantly less effective; repellency after prior exposure, one-choice trap olfactory assay (Drosophila melanogaster [2]; prior exposure to 25% by weight repellent for 20 hours, compared with earlier assay): worse at repelling insects after prior exposure; average number of flies that chose a trap in 6 hours (Drosophila melanogaster [3]; 25% by weight, 20 flies per assay, 6 hours): 4 flies
CN1CCN(C(=O)c2ccccc2F)CC1 [Compound 2oE, 1-methyl-4-[o-fluorobenzoyl]piperazine] | less effective, but statistically similar | required | significantly less effective | much higher preference | more effective than DEET | most effective repellents | some fly death | increased preference | unable to habituate | statistically similar results | less overall participation | preference for the control trap | fly mortality (Drosophila melanogaster [1]; one-choice trap, 25% concentration, exposure in the gas phase): relatively insignificant; interaction with control trap in comparison with repellent-treated trap (Drosophila melanogaster [3]; 25% by weight, low participation): more flies interacted with the control trap
CCN(CC)C(=O)c1cccc(C)c1 [DEET, N,N-diethyl-m-toluamide, reference compound] | – | – | – | – | – | – | – | – | demonstrated habituation in at least one assay | significantly less repellency | – | – | affinity for odorant receptor [4]: showing an affinity; duration of efficacy (mosquito): five; repellency after prior exposure, 2-choice olfactory assay (Drosophila melanogaster [2]; prior exposure to 25% by weight repellent (18-hour period as printed elsewhere in the source)): statistically similar
